Experimental data: US5747490A, “Alpha 1b adrenergic receptor antagonists” (Merck & Co., Inc., priority 1996, dated 1998)

Columns and labels:
[1] = target: T1, human alpha 1b adrenergic receptor (Homo sapiens, UniProt P35368); assay: Alpha 1b Adrenergic Receptor Binding ([125I]-HEAT competition binding); conditions: Table 1, cloned human receptors; read-out: alpha adrenergic receptor subtype binding, 1b
T1 construct: host or cells: stably transfected human alpha 1b cell line (ATCC CRL 11139)
T1 sequence (P35368 1-520): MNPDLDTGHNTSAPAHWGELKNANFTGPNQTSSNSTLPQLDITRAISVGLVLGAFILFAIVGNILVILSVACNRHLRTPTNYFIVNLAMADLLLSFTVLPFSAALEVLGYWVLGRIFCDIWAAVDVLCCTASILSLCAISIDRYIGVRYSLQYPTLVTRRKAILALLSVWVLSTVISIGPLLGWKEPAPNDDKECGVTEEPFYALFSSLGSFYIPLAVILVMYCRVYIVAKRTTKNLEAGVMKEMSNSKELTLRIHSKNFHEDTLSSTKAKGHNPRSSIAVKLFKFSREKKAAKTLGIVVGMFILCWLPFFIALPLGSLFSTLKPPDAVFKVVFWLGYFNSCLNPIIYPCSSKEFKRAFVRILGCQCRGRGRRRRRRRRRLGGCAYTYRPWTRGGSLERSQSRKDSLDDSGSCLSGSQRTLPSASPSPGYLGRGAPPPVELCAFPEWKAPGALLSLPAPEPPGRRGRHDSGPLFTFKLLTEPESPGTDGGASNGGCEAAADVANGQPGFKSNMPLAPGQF
Protocol: (§1) Receptor binding data for representative compounds of the present invention in cloned human receptors is shown below in Table 1.
Screening assay: Alpha 1b Adrenergic Receptor Binding
Membranes prepared from the stably transfected human alpha 1b cell line (ATCC CRL 11139) were used to identify compounds that bind to the human alpha 1b adrenergic receptor. These competition binding reactions (total volume=200 μl) contained 50 mM Tris-HCl pH 7.4, 5 mM EDTA, 150 mM NaCl, 100 pM [^125 I]-HEAT, membranes prepared from the alpha 1b cell line and increasing amounts of unlabeled ligand. Reactions were incubated at room temperature for one hour with shaking. Reactions were filtered onto Whatman GF/C glass fiber filters with a Inotec 96 well cell harvester. Filters were washed three times with ice cold buffer and bound radioactivity was determined (Ki).

[2] = target: T2, human alpha 1a adrenergic receptor (Homo sapiens, UniProt P35348); assay: Selective Binding assay, alpha 1a ([125I]-HEAT competition binding); conditions: Table 1, cloned human receptors; read-out: alpha adrenergic receptor subtype binding, 1a
T2 construct: host or cells: stably transfected human alpha 1a cell line (ATCC CRL 11140)
T2 sequence (P35348 1-466): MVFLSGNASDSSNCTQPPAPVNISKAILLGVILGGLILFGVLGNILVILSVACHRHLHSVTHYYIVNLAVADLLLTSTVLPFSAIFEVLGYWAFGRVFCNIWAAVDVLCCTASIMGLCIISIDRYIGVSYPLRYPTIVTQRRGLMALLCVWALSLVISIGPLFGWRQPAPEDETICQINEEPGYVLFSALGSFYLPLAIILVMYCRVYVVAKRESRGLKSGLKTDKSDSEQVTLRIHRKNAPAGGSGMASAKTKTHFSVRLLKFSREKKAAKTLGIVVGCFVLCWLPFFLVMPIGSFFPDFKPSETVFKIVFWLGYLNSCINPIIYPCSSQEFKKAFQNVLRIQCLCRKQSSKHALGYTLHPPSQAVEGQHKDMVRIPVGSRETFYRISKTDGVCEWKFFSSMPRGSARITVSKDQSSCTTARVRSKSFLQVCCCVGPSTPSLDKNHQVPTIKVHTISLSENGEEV
Protocol: (§2) These competition binding reactions (total volume=200 μl) contained 50 mM Tris-HCl pH 7.4, 5 mM EDTA, 150 mM NaCl, 100 pM [^125 I]-HEAT, membranes prepared from cell lines transfected with the respective alpha 1 subtype expression plasmid and increasing amounts of unlabeled ligand. Reactions were incubated at room temperature for one hour with shaking. Reactions were filtered onto Whatman GF/C glass fiber filters with a Inotec 96 well cell harvester. Filters were washed three times with ice cold buffer and bound radioactivity was determined (Ki).

[3] = target: T3, human alpha 1d adrenergic receptor (Homo sapiens, UniProt P25100); assay: Selective Binding assay, alpha 1d ([125I]-HEAT competition binding); conditions: Table 1, cloned human receptors; read-out: alpha adrenergic receptor subtype binding, 1d
T3 construct: host or cells: stably transfected human alpha 1d cell line (ATCC CRL 11138)
T3 sequence (P25100 1-572): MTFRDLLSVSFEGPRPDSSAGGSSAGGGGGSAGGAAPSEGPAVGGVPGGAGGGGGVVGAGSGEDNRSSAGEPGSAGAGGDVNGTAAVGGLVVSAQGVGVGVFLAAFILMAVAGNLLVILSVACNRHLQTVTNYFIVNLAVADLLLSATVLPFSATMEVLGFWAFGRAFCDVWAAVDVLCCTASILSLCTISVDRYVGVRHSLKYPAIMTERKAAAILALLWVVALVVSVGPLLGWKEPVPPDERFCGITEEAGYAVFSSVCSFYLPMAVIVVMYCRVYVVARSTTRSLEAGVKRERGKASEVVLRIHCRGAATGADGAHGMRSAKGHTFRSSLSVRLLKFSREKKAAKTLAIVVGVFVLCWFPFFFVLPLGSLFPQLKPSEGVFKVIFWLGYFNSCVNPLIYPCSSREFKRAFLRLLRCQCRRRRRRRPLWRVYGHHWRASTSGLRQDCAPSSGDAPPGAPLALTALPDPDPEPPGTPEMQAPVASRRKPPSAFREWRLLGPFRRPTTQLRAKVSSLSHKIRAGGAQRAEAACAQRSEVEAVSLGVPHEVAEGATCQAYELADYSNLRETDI
Protocol: as §2

[4] = target: T4, human alpha 2a adrenergic receptor (Homo sapiens, UniProt P08913); assay: Receptor binding, cloned human alpha 2a; conditions: for Ki: Table 1, cloned human receptors, read-out: alpha adrenergic receptor subtype binding, 2a
T4 construct: expressed in transfected cells; host or cells: cloned human receptor
T4 sequence (P08913 1-465): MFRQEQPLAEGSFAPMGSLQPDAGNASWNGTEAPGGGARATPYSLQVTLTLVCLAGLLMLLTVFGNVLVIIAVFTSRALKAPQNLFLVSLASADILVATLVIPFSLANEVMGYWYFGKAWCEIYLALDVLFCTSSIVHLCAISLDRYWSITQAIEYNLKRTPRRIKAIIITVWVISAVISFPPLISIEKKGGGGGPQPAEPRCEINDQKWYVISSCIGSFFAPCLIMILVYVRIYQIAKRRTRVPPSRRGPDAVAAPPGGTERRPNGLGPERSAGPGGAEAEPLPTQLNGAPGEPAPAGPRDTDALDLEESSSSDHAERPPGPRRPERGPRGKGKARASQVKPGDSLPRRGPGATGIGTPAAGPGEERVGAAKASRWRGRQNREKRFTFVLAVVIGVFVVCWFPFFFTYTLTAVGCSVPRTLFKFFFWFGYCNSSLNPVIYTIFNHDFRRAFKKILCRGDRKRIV
From the text: (§3) This is accomplished according to methods known in the art using other receptors responsible for mediating diverse biological functions. [See e.g., PCT International Application Publication No. WO94/10989, published 26 May 1994; U.S. Pat. No. 5,403,847, issued Apr. 4, 1995, the contents of which are hereby incorporated by reference]. Compounds which are both selective amongst the various human alpha 1 adrenergic receptor subtypes and which have low affinity for other receptors, such as the alpha 2 adrenergic receptors, the β-adrenergic receptors, the muscarinic receptors, the serotonin receptors, and others are particularly preferred. The absence of these non-specific activities may be confirmed by using cloned and expressed receptors in an analogous fashion to the method disclosed herein for identifying compounds which have high affinity for the various human alpha 1 adrenergic receptors. Furthermore, functional biological tests are used to confirm the effects of identified compounds as alpha 1b adrenergic receptor antagonists.
as §1

[5] = target: T5, human alpha 2b adrenergic receptor (Homo sapiens, UniProt P18089); assay: Receptor binding, cloned human alpha 2b; conditions: for Ki: Table 1, cloned human receptors, read-out: alpha adrenergic receptor subtype binding, 2b
T5 construct: expressed in transfected cells; host or cells: cloned human receptor
T5 sequence (P18089 1-450): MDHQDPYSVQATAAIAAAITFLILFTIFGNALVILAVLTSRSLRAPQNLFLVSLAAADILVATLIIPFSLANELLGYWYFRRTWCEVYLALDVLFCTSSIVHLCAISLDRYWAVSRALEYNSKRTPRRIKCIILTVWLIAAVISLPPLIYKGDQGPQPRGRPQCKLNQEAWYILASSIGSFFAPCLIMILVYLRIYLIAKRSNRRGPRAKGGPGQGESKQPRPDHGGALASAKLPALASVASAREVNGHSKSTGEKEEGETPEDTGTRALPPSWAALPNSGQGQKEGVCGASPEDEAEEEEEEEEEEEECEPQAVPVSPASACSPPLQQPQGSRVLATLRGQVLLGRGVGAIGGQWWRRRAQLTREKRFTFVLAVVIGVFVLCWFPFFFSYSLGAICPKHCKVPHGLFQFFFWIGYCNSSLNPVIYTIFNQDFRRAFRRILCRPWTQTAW
From the text: as §3, §1

[6] = target: T6, human alpha 2c adrenergic receptor (Homo sapiens, UniProt P18825); assay: Receptor binding, cloned human alpha 2c; conditions: for Ki: Table 1, cloned human receptors, read-out: alpha adrenergic receptor subtype binding, 2c
T6 construct: expressed in transfected cells; host or cells: cloned human receptor
T6 sequence (P18825 1-462): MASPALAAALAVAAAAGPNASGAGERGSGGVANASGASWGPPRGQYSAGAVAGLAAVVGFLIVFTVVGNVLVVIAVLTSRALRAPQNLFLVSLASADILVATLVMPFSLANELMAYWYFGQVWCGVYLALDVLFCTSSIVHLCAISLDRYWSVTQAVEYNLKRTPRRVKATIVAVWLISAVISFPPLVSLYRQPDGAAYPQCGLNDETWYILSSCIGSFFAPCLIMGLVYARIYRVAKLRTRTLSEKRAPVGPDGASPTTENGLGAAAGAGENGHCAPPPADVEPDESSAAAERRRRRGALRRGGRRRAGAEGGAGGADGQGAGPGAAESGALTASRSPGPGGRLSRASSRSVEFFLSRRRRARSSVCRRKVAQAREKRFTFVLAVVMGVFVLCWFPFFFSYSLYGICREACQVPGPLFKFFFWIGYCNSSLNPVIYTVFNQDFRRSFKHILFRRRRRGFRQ
From the text: as §3, §1

Compound	Ki [1] [nM]	Ki [2] [nM]	Ki [3] [nM]	Ki [4] [nM]	Ki [5] [nM]	Ki [6] [nM]	inhibition at 1 µM ([4]; read-out: alpha adrenergic receptor subtype binding, 2a, % @ 1 uM) [%]	inhibition at 10 µM ([4]; read-out: alpha adrenergic receptor subtype binding, 2a, % @ 10 uM) [%]	inhibition at 1 µM ([5]; read-out: alpha adrenergic receptor subtype binding, 2b, % @ 1 uM) [%]	inhibition at 10 µM ([5]; read-out: alpha adrenergic receptor subtype binding, 2b, % @ 10 uM) [%]	inhibition at 1 µM ([6]; read-out: alpha adrenergic receptor subtype binding, 2c, % @ 1 uM) [%]	inhibition at 10 µM ([6]; read-out: alpha adrenergic receptor subtype binding, 2c, % @ 10 uM) [%]
COc1cc2nc(N3CCN[C@H](C(=O)NC(C)(C)C)C3)nc(N)c2cc1OC [Compound 3a, (S)-1-(4-Amino-6,7-dimethoxy-2-quinazolinyl)-3-(1,1-dimethylethylamino)carbonyl piperazine]	2.7	1190	111	1170	> 10000	736						
COc1cc2nc(N3CCN(C(=O)c4ccco4)[C@H](C(=O)NC(C)(C)C)C3)nc(N)c2cc1OC [Compound 4a]	3.4	> 3670	97				23	65	16	23	42	71
COc1cc2nc(N3CCN(C(=O)OCc4ccccc4)[C@H](C(=O)NC(C)(C)C)C3)nc(N)c2cc1OC [Compound 2a, (S)-1-(4-Amino-6,7-dimethoxy-2-quinazolinyl)-4-[(benzyloxy)carbonyl]-3-(1,1-dimethylethylamino)carbonyl piperazine]	1	463	29	683	> 10000	715						
